Data on two molecules can be found in PMC10363510 (Plant Communications, 2023).

In this test the test system is SiAT1. The experiment in a line: HPLC product assay, Michaelis-Menten fit. The format is biochemical, Sesamum indicum. The note with it: read-out: apparent Km; 75 mM salidroside, 50 mM Tris-HCl pH 7.4, 30°C.

Consider `CC(C)(COP(=O)(O)OP(=O)(O)OC[C@H]1O[C@@H](n2cnc3c(N)ncnc32)[C@H](O)[C@@H]1OP(=O)(O)O)[C@@H](O)C(=O)NCCC(=O)NCCSC(=O)/C=C/c1ccc(O)cc1` [p-coumaroyl-CoA], for which the Km was 1.66 ± 0.39 µM. The same measure for `CC(C)(COP(=O)(O)OP(=O)(O)OC[C@H]1O[C@@H](n2cnc3c(N)ncnc32)[C@H](O)[C@@H]1OP(=O)(O)O)[C@@H](O)C(=O)NCCC(=O)NCCSC(=O)/C=C/c1ccc(O)c(O)c1` [caffeoyl-CoA]: 1.13 ± 0.42 µM.

The term Km denotes the concentration of substrate that gives half-maximal velocity.
